Holding throughout (type): cell-based
The target of one experiment is T1, BRAF V600E (Homo sapiens, UniProt P15056, V600E).
T1 construct: endogenous C-terminal HiBiT fusion tag on BRAF V600E allele; endogenous in cells; host or cells: A375 clone 1F10 (CRISPR-Cas9 knock-in of the HiBiT tag; parental A375 from ATCC)
The experiment in a line: BRAF HiBiT degradation assay, C-terminal HiBiT-tagged BRAF V600E A375 cells (clone 1F10), Nano-Glo HiBiT Lytic assay. The note with it: for Dmax: A-375. An outline of the steps: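 Luminescence from the Nano-Glo HiBiT lytic read-out gave % BRAF V600E remaining versus DMSO-treated tagged cells, with untagged A375 as background. Clone 1F10 cells (10,000/well, 24 h pre-culture) received compound at 1 μM–0.01 nM in half-log steps, 0.2% DMSO; curve fits gave DC50 at Y=50, plus observed Dmax.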
Background: With HiBiT, luminescence reflects the tagged protein that the partner subunit can reach.

Another experiment addresses T2, BRAF G469A (Homo sapiens, UniProt P15056, G469A).
T2 construct: Horizon Discovery (HCT-116 BRAF−/− cells); host or cells: HCT-116 BRAF−/− cells, clone 34, lentiviral transduction
Description: BRAF HiBiT degradation assay, C-terminal HiBiT-tagged BRAF G469A overexpressed in HCT-116 BRAF−/− cells (clone 34), Nano-Glo HiBiT Lytic assay. An outline of the steps:
(§1)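 Degradation was read by Nano-Glo HiBiT lytic luminescence, normalised to DMSO-treated tagged cells with wildtype HCT-116 as background. Test cells were lentiviral clones of HCT-116 BRAF−/− carrying HiBiT-tagged mutants in RPMI/10% FBS, given compound at 0.01 nM–1 μM in duplicate. Outputs are the curve-fitted concentration giving 50% degradation and the maximal observed degradation.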

A further experiment deals with T3, BRAF D594G (Homo sapiens, UniProt P15056, D594G).
T3 construct: Horizon Discovery (HCT-116 BRAF−/− cells); host or cells: HCT-116 BRAF−/− cells, clone 63, lentiviral transduction
T3 sequence (P15056 whole entry D594G): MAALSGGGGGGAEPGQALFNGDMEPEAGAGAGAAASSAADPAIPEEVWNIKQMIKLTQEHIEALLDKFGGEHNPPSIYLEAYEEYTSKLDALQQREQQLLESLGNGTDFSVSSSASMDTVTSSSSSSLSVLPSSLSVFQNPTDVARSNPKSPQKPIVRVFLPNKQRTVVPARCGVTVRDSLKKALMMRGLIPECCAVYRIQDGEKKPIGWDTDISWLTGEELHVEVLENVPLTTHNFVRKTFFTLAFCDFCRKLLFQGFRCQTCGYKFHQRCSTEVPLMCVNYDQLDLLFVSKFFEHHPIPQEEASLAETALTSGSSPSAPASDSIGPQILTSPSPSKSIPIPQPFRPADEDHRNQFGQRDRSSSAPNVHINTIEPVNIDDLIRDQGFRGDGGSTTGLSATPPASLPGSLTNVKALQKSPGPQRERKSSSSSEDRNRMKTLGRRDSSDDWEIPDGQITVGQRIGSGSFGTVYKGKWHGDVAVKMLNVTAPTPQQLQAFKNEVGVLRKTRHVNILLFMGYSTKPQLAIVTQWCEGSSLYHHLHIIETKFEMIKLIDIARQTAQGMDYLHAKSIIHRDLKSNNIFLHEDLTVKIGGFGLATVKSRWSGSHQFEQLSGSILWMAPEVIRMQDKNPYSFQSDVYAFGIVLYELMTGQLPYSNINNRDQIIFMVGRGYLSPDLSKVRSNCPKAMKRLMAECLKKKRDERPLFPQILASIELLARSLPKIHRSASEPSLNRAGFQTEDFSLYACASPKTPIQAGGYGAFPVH
Description: BRAF HiBiT degradation assay, C-terminal HiBiT-tagged BRAF D594G overexpressed in HCT-116 BRAF−/− cells (clone 63), Nano-Glo HiBiT Lytic assay. The procedure, abridged:
as §1

In the next experiment the target is T4, BRAF G466V (Homo sapiens, UniProt P15056, G466V).
T4 construct: Horizon Discovery (HCT-116 BRAF−/− cells); host or cells: HCT-116 BRAF−/− cells, clone 8, lentiviral transduction
T4 sequence (P15056 whole entry G466V): as the sequence (P15056 whole entry D594G) above, with G466V, G594D counted along it
The experiment in a line: BRAF HiBiT degradation assay, C-terminal HiBiT-tagged BRAF G466V overexpressed in HCT-116 BRAF−/− cells (clone 8), Nano-Glo HiBiT Lytic assay. An outline of the steps:
as §1

Setting [1] is: A375 (BRAF V600E), DC50 at 50%: fitted conc. at Y=50.
Setting [2] is: A375 (BRAF V600E), percentage protein degraded at maximal compound effect relative to DMSO.
The mark [3] stands for this setting: Class 2, BRAF G469A, DC50 at 50%: fitted conc. at Y=50.
Setting [4] is: HCT-116, Class 2, BRAF G469A, percentage protein degraded at maximal compound effect relative to DMSO.
Where [5] appears, read: BRAF D594G, DC50 at 50%: fitted conc. at Y=50.
The mark [6] stands for this setting: HCT-116, BRAF D594G, percentage protein degraded at maximal compound effect relative to DMSO.
The mark [7] stands for this setting: BRAF G466V, DC50 at 50%: fitted conc. at Y=50.
[8] abbreviates: HCT-116, BRAF G466V, percentage protein degraded at maximal compound effect relative to DMSO.
Where [9] appears, read: A375 (BRAF V600E, Class 1), DC50 at 50% degradation.
Setting [10] is: A375 (BRAF V600E, Class 1), observed Dmax, % protein degraded relative to DMSO control.
Where [11] appears, read: BRAF G469A (Class 2), HCT-116 BRAF−/− cells, DC50 at 50% degradation.
[12] abbreviates: BRAF G469A (Class 2), HCT-116 BRAF−/− cells, observed Dmax relative to DMSO control.
Setting [13] is: BRAF D594G (Class 3), HCT-116 BRAF−/− cells, DC50 at 50% degradation.
The mark [14] stands for this setting: BRAF D594G (Class 3), HCT-116 BRAF−/− cells, observed Dmax relative to DMSO control.
The mark [15] stands for this setting: BRAF G466V (Class 3), HCT-116 BRAF−/− cells, DC50 at 50% degradation.
The mark [16] stands for this setting: BRAF G466V (Class 3), HCT-116 BRAF−/− cells, observed Dmax relative to DMSO control.

Among the data in patent US20260317324A1, “BIFUNCTIONAL COMPOUNDS FOR DEGRADING BRAF VIA UBIQUITIN PROTEOSOME PATHWAY” (Nurix Therapeutics, Inc., priority 2023, published 2026) are DC50 and Dmax values, retold here.

T1 sequence (P15056 whole entry V600E, the tested form may be a part): as the sequence (P15056 whole entry D594G) above, with G594D, V600E counted along it
T2 sequence (P15056 whole entry G469A): as the sequence (P15056 whole entry D594G) above, with G469A, G594D counted along it

In general, DC50 refers to the concentration giving 50% degradation. Low values mean degradation at low concentration, high ones degradation only at high concentration. What is called Dmax is the greatest extent of degradation seen. In the case of `CCCS(=O)(=O)Nc1cccc(-c2nc(C3CCN(C(=O)C4CCN(CC5CCN(c6cccc7c6n(C)c(=O)n7C6CCC(=O)NC6=O)CC5)CC4)CC3)sc2-c2ccnc(N)n2)c1F` (racemic) [Compound 195, Rac-N-{3-[5-(2-aminopyrimidin-4-yl)-2-(1-{1-[(1-{1-[(3R)-2,6-dioxopiperidin-3-yl]-3-methyl-2-oxo-2,3-dihydro-1H-1,3-benzodiazol-4-yl}piperidin-4-yl)methyl]piperidine-4-carbonyl}piperidin-4-yl)-1,3-thiazol-4-yl]-2-fluorophenyl}propane-1-sulfonamide], the DC50 at BRAF V600E (setting [1]), on BRAF G469A (setting [3]), on BRAF D594G (setting [5]) and at BRAF G466V (setting [7]) was less than 10 nM each time. For the same molecule, the Dmax was more than 70% at BRAF V600E (setting [2]), 30 to 70% at BRAF G469A (setting [4]), 30 to 70% at BRAF D594G (setting [6]) and 30 to 70% on BRAF G466V (setting [8]).

Consider `O=C1CCN(c2ccc(N3CCC(CN4CCN(c5ccc(-n6cc(-c7cc(Cl)cc(NS(=O)(=O)N8CC[C@@H](F)C8)c7F)c(-c7ccncc7)n6)cc5)CC4)CC3)cc2)C(=O)N1` [Compound 292, (3R)—N-[5-chloro-3-(1-{4-[4-({1-[4-(2,4-dioxo-1,3-diazinan-1-yl)phenyl]piperidin-4-yl}methyl)piperazin-1-yl]phenyl}-3-(pyridin-4-yl)-1H-pyrazol-4-yl)-2-fluorophenyl]-3-fluoropyrrolidine-1-sulfonamide], for which the half-maximal degradation concentration (DC50) on BRAF V600E (setting [9]) was less than 10 nM; at BRAF G469A (setting [11]), 50 to 500 nM; at BRAF D594G (setting [13]) it was less than 10 nM; at BRAF G466V (setting [15]) it was less than 10 nM. The Dmax on BRAF V600E (setting [10]) is more than 70%; on BRAF G469A (setting [12]), 30 to 70%; at BRAF D594G (setting [14]), 30 to 70%; on BRAF G466V (setting [16]), 30 to 70%.

Turning to `O=C1CCC(c2ccc(N3CCC(CN4CCN(c5ccc(-n6cc(-c7cc(C(F)F)cc(NS(=O)(=O)N8CCCC8)c7F)c(-c7ccncc7)n6)cc5)CC4)CC3)nc2)C(=O)N1` (racemic) [Compound 350, Rac-N-[5-(difluoromethyl)-3-[1-(4-{4-[(1-{5-[(3R)-2,6-dioxopiperidin-3-yl]pyridin-2-yl}piperidin-4-yl)methyl]piperazin-1-yl}phenyl)-3-(pyridin-4-yl)-1H-pyrazol-4-yl]-2-fluorophenyl]pyrrolidine-1-sulfonamide], the DC50 on BRAF V600E (setting [9]), at BRAF G469A (setting [11]), at BRAF D594G (setting [13]) and at BRAF G466V (setting [15]) was less than 10 nM each time. Also, the Dmax on BRAF V600E (setting [10]), at BRAF G469A (setting [12]), on BRAF D594G (setting [14]) and at BRAF G466V (setting [16]) was more than 70% each time.

Turning to `CCCS(=O)(=O)Nc1cccc(-c2nc(C(C)(C)C)sc2-c2ccnc(Nc3cnn(C4CCN(CC5CCN(c6ccc7c(=O)n(C8CCC(=O)NC8=O)ccc7c6)CC5)CC4)c3)n2)c1F` (racemic) [Compound 80, Rac-N-[3-(2-tert-butyl-5-{2-[(1-f{1-[(1-{2-[(3R)-2,6-dioxopiperidin-3-yl]-1-oxo-1,2-dihydroisoquinolin-6-yl}piperidin-4-yl)methyl]piperidin-4-yl}-1H-pyrazol-4-yl)amino]pyrimidin-4-yl}-1,3-thiazol-4-yl)-2-fluorophenyl]propane-1-sulfonamide], the DC50 on BRAF V600E (setting [1]) was less than 10 nM; on BRAF G469A (setting [3]) it was more than 500 nM; at BRAF D594G (setting [5]), more than 500 nM; on BRAF G466V (setting [7]), more than 500 nM. Moreover, the Dmax on BRAF V600E (setting [2]) was more than 70%; on BRAF G469A (setting [4]) it was less than 30%; at BRAF D594G (setting [6]) it was 30 to 70%; on BRAF G466V (setting [8]), 30 to 70%.

On to `CCN(C)S(=O)(=O)Nc1cccc(-c2nc(C(C)(C)C)sc2-c2ccnc(Nc3ccc(N4CCN(C(=O)C5(C)CCN(c6ccc(C7CCC(=O)NC7=O)cn6)CC5)CC4)cn3)n2)c1F` (racemic) [Compound 42, Rac-(3S)-3-[6-(4-{4-[6-({4-[2-tert-butyl-4-(3-{[ethyl(methyl)sulfamoyl]amino}-2-fluorophenyl)-1,3-thiazol-5-yl]pyrimidin-2-yl}amino)pyridin-3-yl]piperazine-1-carbonyl}-4-methylpiperidin-1-yl)pyridin-3-yl]piperidine-2,6-dione], for which the DC50 on BRAF V600E (setting [1]) is less than 10 nM; on BRAF G469A (setting [3]) it was more than 500 nM; at BRAF D594G (setting [5]), more than 500 nM; at BRAF G466V (setting [7]) it was more than 500 nM. Further, the maximal degradation (Dmax) on BRAF V600E (setting [2]) is more than 70%; at BRAF G469A (setting [4]), less than 30%; at BRAF D594G (setting [6]), 30 to 70%; at BRAF G466V (setting [8]), less than 30%.

For the molecule `CCCS(=O)(=O)Nc1cccc(-c2nc(C(C)(C)C)sc2-c2ccnc(Nc3ccc(N4CCN(CC5CCN(c6ccc([C@H]7CCC(=O)NC7=O)cc6)CC5)CC4)cc3)n2)c1F` [Compound 59, N-[3-(2-tert-butyl-5-{2-[(4-{4-[(1-{4-[(3R)-2,6-dioxopiperidin-3-yl]phenyl}piperidin-4-yl)methyl]piperazin-1-yl}phenyl)amino]pyrimidin-4-yl}-1,3-thiazol-4-yl)-2-fluorophenyl]propane-1-sulfonamide], the 50% degradation concentration (DC50) on BRAF V600E (setting [1]) is 10 to 50 nM; on BRAF G469A (setting [3]), more than 500 nM; at BRAF D594G (setting [5]), 10 to 50 nM; on BRAF G466V (setting [7]), less than 10 nM. Also, the maximal degradation (Dmax) was more than 70% on BRAF V600E (setting [2]), 30 to 70% on BRAF G469A (setting [4]), 30 to 70% at BRAF D594G (setting [6]) and more than 70% at BRAF G466V (setting [8]).

Turning to `CCCS(=O)(=O)Nc1cccc(-c2nc(C(C)(C)C)sc2-c2ccnc(Nc3cnn(CC4CCN(C(=O)CN5CCc6cc(C7CCC(=O)NC7=O)ccc6C5)CC4)c3)n2)c1F` (racemic) [Compound 119, Rac-N-[3-(2-tert-butyl-5-{2-[(1-{[1-(2-{6-[(3R)-2,6-dioxopiperidin-3-yl]-1,2,3,4-tetrahydroisoquinolin-2-yl}acetyl)piperidin-4-yl]methyl}-1H-pyrazol-4-yl)amino]pyrimidin-4-yl}-1,3-thiazol-4-yl)-2-fluorophenyl]propane-1-sulfonamide], the DC50 was less than 10 nM on BRAF V600E (setting [1]), more than 500 nM at BRAF G469A (setting [3]), more than 500 nM at BRAF D594G (setting [5]) and more than 500 nM at BRAF G466V (setting [7]). Also, the Dmax is more than 70% on BRAF V600E (setting [2]), less than 30% on BRAF G469A (setting [4]), 30 to 70% on BRAF D594G (setting [6]) and less than 30% on BRAF G466V (setting [8]).

For `CCCS(=O)(=O)Nc1cccc(-c2nc(C3CCN(C(=O)C4CCN(C(=O)C5CCN(c6ccc(C7CCC(=O)NC7=O)cn6)CC5)CC4)CC3)sc2-c2ccnc(NC3CC3)n2)c1F` (racemic) [Compound 198, Rac-N-(3-{5-[2-(cyclopropylamino)pyrimidin-4-yl]-2-{1-[1-(1-{5-[(3R)-2,6-dioxopiperidin-3-yl]pyridin-2-yl}piperidine-4-carbonyl)piperidine-4-carbonyl]piperidin-4-yl}-1,3-thiazol-4-yl}-2-fluorophenyl)propane-1-sulfonamide], the DC50 is less than 10 nM on BRAF V600E (setting [1]), more than 500 nM on BRAF G469A (setting [3]), less than 10 nM on BRAF D594G (setting [5]) and more than 500 nM at BRAF G466V (setting [7]). Moreover, the Dmax at BRAF V600E (setting [2]) was more than 70%; on BRAF G469A (setting [4]), 30 to 70%; on BRAF D594G (setting [6]), 30 to 70%; on BRAF G466V (setting [8]), 30 to 70%.

Regarding `O=C1CCN(c2ccc(N3CCC(CN4CCN(c5ccc(-n6cc(-c7cc(Cl)cc(NS(=O)(=O)N8CCCC8)c7F)c(-c7ccncc7)n6)nc5)CC4)CC3)cc2)C(=O)N1` [Compound 287, N-[5-chloro-3-(1-{5-[4-({1-[4-(2,4-dioxo-1,3-diazinan-1-yl)phenyl]piperidin-4-yl}methyl)piperazin-1-yl]pyridin-2-yl}-3-(pyridin-4-yl)-1H-pyrazol-4-yl)-2-fluorophenyl]pyrrolidine-1-sulfonamide], the DC50 on BRAF V600E (setting [9]) is less than 10 nM; at BRAF G469A (setting [11]), 10 to 50 nM; on BRAF D594G (setting [13]) it was less than 10 nM; on BRAF G466V (setting [15]), less than 10 nM. In addition, the Dmax at BRAF V600E (setting [10]) was more than 70%; on BRAF G469A (setting [12]), 30 to 70%; at BRAF D594G (setting [14]), 30 to 70%; on BRAF G466V (setting [16]), 30 to 70%.
